Test results published in patent publication US20250263440A1, “CD38-BINDING AGENTS AND USES THEREOF” (PeptiDream Inc., priority 2019, published 2025).
Starred links: 1 amine or outer side, 2 acyl side, 3 side chain; linkers in the order of their positions; H or OH if unused. Positions of bridges follow the written chain, without caps; N, C: chain ends. Non-standard residues stand in square brackets, D forms with d. Residues, ends and D or L forms follow the SMILES beside them. *: point of attachment. Trp(6-aza) = N[C@@H](Cc1c[nH]c2cnccc12)C(=O)O; Bip = N[C@@H](Cc1ccc(-c2ccccc2)cc1)C(=O)O; Nle(6-Ph) = N[C@@H](CCCCc1ccccc1)C(=O)O; Arg(Me2s) = CN=C(NC)NCCC[C@H](N)C(=O)O; X3 = CCCCCCCCC[C@H](N[*:1])C(=O)[*:2]; Met(O2) = CS(=O)(=O)CC[C@H](N)C(=O)O; Arg(Me) = CNC(=N)NCCC[C@H](N)C(=O)O; hhPhe = N[C@@H](CCCc1ccccc1)C(=O)O; hCit = NC(=O)NCCCC[C@H](N)C(=O)O; Cit = NC(=O)NCCC[C@H](N)C(=O)O; Ahp(2) = CCCCC[C@H](N)C(=O)O; X1 = COCCOCCOCCOCCC(=O)*

Target: His-tagged CD38 (Homo sapiens, UniProt P28907)
Assay: SPR assay (Biacore S200, Sensor Chip NTA, single-cycle kinetics) of SEQ ID NO.1 variants against His-tagged CD38
Format: binding
Settings: for Kd: SPR Biacore S200, His-tagged CD38, calculated from ka and kd; for kon / koff: SPR Biacore S200, NTA chip, His-tagged CD38; for kon: read-out: Ka (association rate constant); for koff: read-out: Kd (dissociation rate constant)
Procedure: SPR assay was performed using Biacore S200 (Cytiva: Former GE Healthcare).
After the equilibration of Series S Sensor Chip NTA (produced by Cytiva: Former GE Healthcare) with Running Buffer (10 mM HEPES pH7.4, 150 mM NaCl, 0.05% Tween 20), followed by injection of 350 mM EDTA at a flow rate of 10 L/min for 60 seconds and […] NiCl2 at a flow rate of 10 L/min for 60 seconds, then 3 mM EDTA at a flow rate of 10 L/min for 120 seconds, sequently, to wash the sensor chip.
EDC/NHS mixture was injected at a flow rate of […] for 7 minutes to thereby activate the functional groups on sensor chip. His-tagged CD38 in Running Buffer (10 mM HEPES pH7.4, 150 mM NaCl, 0.05% Tween 20) was injected immobilized to at a flow rate of […]. For 7 minutes to immobilize the CD38 on the substrate surfaces of the sensor chip. Then Ethanolamine was injected at a flow rate of […] for 7 minutes.
1.0 M Ethanolamine(aq.) was injected at a flow rate of 10 L/min for 420 seconds for capping. 10 mM peptides (which were synthesised described above) in DMSO were diluted to obtain 10 uM with Running Buffer, and prepared 100 nM, 50 nM, 25 nM, 10 nM, 5 nM of each peptide's solutions (Peptide Samples).
Using these Peptide Samples, kinetics of peptides against His-tagged CD38 was measured. The method adopted for sample measurement was a single-cycle kinetics method. The analysis was conducted using the evaluation software 1.1 provided with Biacore S200. A DMSO correction curve obtained by solvent correction measurements was applied for the analysis. Kinetics fitting was done on the difference data obtained by subtracting the baseline data from sample measurement data.
KD values were calculated based on the association rate constant (ka) and dissociation rate constant (kd).

Structure (SMILES): CCCCC[C@@H]1NC(=O)[C@H](Cc2ccc(-c3ccccc3)cc2)NC(=O)[C@H](CC(C)C)NC(=O)[C@H](C(C)C)NC(=O)[C@H](CCC(=O)O)NC(=O)[C@H](CC(=O)O)NC(=O)[C@H](Cc2c[nH]cn2)NC(=O)[C@H](Cc2ccc(O)cc2)NC(=O)[C@H](CCCCC)NC(=O)[C@H](CCCNC(=N)N)NC(=O)[C@@H](C)NC(=O)CSC[C@@H](C(N)=O)NC(=O)[C@H](CC(=O)O)NC1=O [compound 20] ({CH2CO}-[dA]R[Ahp(2)]YHDEVL[Bip][Ahp(2)]DC-NH2; thioether N-13)
- Kd: 10.6 nM
- kon: 730000 M⁻¹ s⁻¹
- koff: 0.0077 s⁻¹

Structure (SMILES): CCCCC[C@@H]1NC(=O)[C@H](CCCNC(=N)N)NC(=O)[C@H](C)NC(=O)CSC[C@@H](C(N)=O)NC(=O)[C@H](CC(=O)O)NC(=O)[C@H](CCCCc2ccccc2)NC(=O)[C@H](Cc2ccc(-c3ccccc3)cc2)NC(=O)[C@H](CC(C)C)NC(=O)[C@H](C(C)C)NC(=O)[C@H](CCC(=O)O)NC(=O)[C@H](CC(=O)O)NC(=O)[C@H](Cc2c[nH]cn2)NC(=O)[C@H](Cc2ccc(O)cc2)NC1=O [compound 25] ({CH2CO}-AR[Ahp(2)]YHDEVL[Bip][Nle(6-Ph)]DC-NH2; thioether N-13)
- kon: 630000 M⁻¹ s⁻¹
- koff: 0.00087 s⁻¹

Structure (SMILES): CCCCC[C@@H]1NC(=O)[C@H](CCCNC(=NC)NC)NC(=O)[C@H](C)NC(=O)CSC[C@@H](C(N)=O)NC(=O)[C@H](CC(=O)O)NC(=O)[C@H](CCCCc2ccccc2)NC(=O)[C@H](Cc2ccc(-c3ccccc3)cc2)NC(=O)[C@H](CC(C)C)NC(=O)[C@H](C(C)C)NC(=O)[C@H](CCC(=O)O)NC(=O)[C@H](CC(=O)O)NC(=O)[C@H](Cc2c[nH]cn2)NC(=O)[C@H](Cc2ccc(O)cc2)NC1=O [compound 31] ({CH2CO}-A[Arg(Me2s)][Ahp(2)]YHDEVL[Bip][Nle(6-Ph)]DC-NH2; thioether N-13)
- Kd: 2.6 nM
- kon: 480000 M⁻¹ s⁻¹
- koff: 0.0012 s⁻¹

Structure (SMILES): CCCCCCCCC[C@@H]1NC(=O)[C@H](Cc2ccc(-c3ccccc3)cc2)NC(=O)[C@H](CC(C)C)NC(=O)[C@H](C(C)C)NC(=O)[C@H](CCC(=O)O)NC(=O)[C@H](CC(=O)O)NC(=O)[C@H](Cc2c[nH]cn2)NC(=O)[C@H](Cc2ccc(O)cc2)NC(=O)[C@H](CCCCC)NC(=O)[C@H](CCCNC(=N)N)NC(=O)[C@H](C)NC(=O)CSC[C@@H](C(N)=O)NC(=O)[C@H](CC(=O)O)NC1=O [compound 24] ({CH2CO}-AR[Ahp(2)]YHDEVL[Bip][X3]DC-NH2; thioether N-13 (inferred); N-terminus and C-terminus assumed)
- kon: 370000 M⁻¹ s⁻¹
- koff: 0.0013 s⁻¹

Structure (SMILES): CCCCC[C@@H]1NC(=O)[C@H](Cc2ccc(-c3ccccc3)cc2)NC(=O)[C@H](CC(C)C)NC(=O)[C@H](C(C)C)NC(=O)[C@H](CCC(=O)O)NC(=O)[C@H](CC(=O)O)NC(=O)[C@H](Cc2c[nH]cn2)NC(=O)[C@H](Cc2ccc(O)cc2)NC(=O)[C@H](CCCCC)NC(=O)[C@H](CCCNC(=N)N)NC(=O)[C@H](C)NC(=O)CSC[C@@H](C(N)=O)NC(=O)[C@H](C)NC1=O [compound 27] ({CH2CO}-AR[Ahp(2)]YHDEVL[Bip][Ahp(2)]AC-NH2; thioether N-13 (inferred); N-terminus and C-terminus assumed)
- kon: 560000 M⁻¹ s⁻¹
- koff: 0.0028 s⁻¹

Structure (SMILES): CCCCC[C@@H]1NC(=O)[C@H](CCCCNC(N)=O)NC(=O)[C@H](C)NC(=O)CSC[C@@H](C(N)=O)NC(=O)[C@H](CC(=O)O)NC(=O)[C@H](CCCCc2ccccc2)NC(=O)[C@H](Cc2ccc(-c3ccccc3)cc2)NC(=O)[C@H](CC(C)C)NC(=O)[C@H](C(C)C)NC(=O)[C@H](CCC(=O)O)NC(=O)[C@H](CC(=O)O)NC(=O)[C@H](Cc2c[nH]cn2)NC(=O)[C@H](Cc2ccc(O)cc2)NC1=O [compound 33] ({CH2CO}-A[hCit][Ahp(2)]YHDEVL[Bip][Nle(6-Ph)]DC-NH2; thioether N-13)
- Kd: 6.7 nM
- kon: 220000 M⁻¹ s⁻¹
- koff: 0.0015 s⁻¹

Structure (SMILES): CCCCC[C@@H]1NC(=O)[C@H](CCCNC(=N)N)NC(=O)[C@H](C)NC(=O)CSC[C@@H](C(N)=O)NC(=O)[C@H](CC(=O)O)NC(=O)[C@H](CCCCC)NC(=O)[C@H](Cc2ccc(-c3ccccc3)cc2)NC(=O)[C@H](CCS(C)(=O)=O)NC(=O)[C@H](C(C)C)NC(=O)[C@H](CCC(N)=O)NC(=O)[C@H](CC(=O)O)NC(=O)[C@H](Cc2c[nH]cn2)NC(=O)[C@H](Cc2ccc(O)cc2)NC1=O [compound 13] ({CH2CO}-AR[Ahp(2)]YHDQV[Met(O2)][Bip][Ahp(2)]DC-NH2; thioether N-13)
- kon: 1.1e+06 M⁻¹ s⁻¹
- koff: 0.024 s⁻¹

Structure (SMILES): CCCCC[C@@H]1NC(=O)[C@H](CCCNC(=N)N)NC(=O)[C@H](C)NC(=O)CSC[C@@H](C(N)=O)NC(=O)[C@H](CC(=O)O)NC(=O)[C@H](CCCCC)NC(=O)[C@H](Cc2ccc(-c3ccccc3)cc2)NC(=O)[C@H](CC(C)C)NC(=O)[C@H](C(C)C)NC(=O)[C@H](CC(N)=O)NC(=O)[C@H](CC(=O)O)NC(=O)[C@H](Cc2c[nH]cn2)NC(=O)[C@H](Cc2ccc(O)cc2)NC1=O [compound 5] ({CH2CO}-AR[Ahp(2)]YHDNVL[Bip][Ahp(2)]DC-NH2; thioether N-13)
- kon: 766000 M⁻¹ s⁻¹
- koff: 0.00161 s⁻¹

Structure (SMILES): CCCCC[C@@H]1NC(=O)[C@H](CCCNC(=N)NC)NC(=O)[C@H](C)NC(=O)CSC[C@@H](C(N)=O)NC(=O)[C@H](CC(=O)O)NC(=O)[C@H](CCCCc2ccccc2)NC(=O)[C@H](Cc2ccc(-c3ccccc3)cc2)NC(=O)[C@H](CC(C)C)NC(=O)[C@H](C(C)C)NC(=O)[C@H](CCC(=O)O)NC(=O)[C@H](CC(=O)O)NC(=O)[C@H](Cc2c[nH]cn2)NC(=O)[C@H](Cc2ccc(O)cc2)NC1=O [compound 30] ({CH2CO}-A[Arg(Me)][Ahp(2)]YHDEVL[Bip][Nle(6-Ph)]DC-NH2; thioether N-13)
- Kd: 3.1 nM
- kon: 350000 M⁻¹ s⁻¹
- koff: 0.0011 s⁻¹

Structure (SMILES): CCCCC[C@@H]1NC(=O)[C@H](CCCNC(=N)N)NC(=O)[C@H](C)NC(=O)CSC[C@@H](C(N)=O)NC(=O)[C@H](CC(=O)O)NC(=O)[C@H](CCCCC)NC(=O)[C@H](Cc2ccc(-c3ccccc3)cc2)NC(=O)[C@H](CCS(C)(=O)=O)NC(=O)[C@H](C(C)C)NC(=O)[C@H](CCCNC(=N)N)NC(=O)[C@H](CC(=O)O)NC(=O)[C@H](Cc2c[nH]cn2)NC(=O)[C@H](Cc2ccc(O)cc2)NC1=O [compound 15] ({CH2CO}-AR[Ahp(2)]YHDRV[Met(O2)][Bip][Ahp(2)]DC-NH2; thioether N-13)
- Kd: 9.42 nM
- kon: 1.4e+06 M⁻¹ s⁻¹
- koff: 0.013 s⁻¹

Structure (SMILES): CCCCC[C@@H]1NC(=O)[C@H](Cc2ccc(-c3ccccc3)cc2)NC(=O)[C@H](CC(C)C)NC(=O)[C@H](C(C)C)NC(=O)[C@H](CCC(=O)O)NC(=O)[C@H](CC(=O)O)NC(=O)[C@H](Cc2c[nH]cn2)NC(=O)[C@H](Cc2ccc(O)cc2)NC(=O)[C@H](CCCCC)NC(=O)[C@H](CCCNC(=N)N)NC(=O)[C@H](CCCCNC(=O)CCOCCOCCOCCOC)NC(=O)CSC[C@@H](C(N)=O)NC(=O)[C@H](CC(=O)O)NC1=O [compound 17] ({CH2CO}-K(X1)R[Ahp(2)]YHDEVL[Bip][Ahp(2)]DC-NH2; thioether N-13)
- Kd: 4.37 nM
- kon: 210000 M⁻¹ s⁻¹
- koff: 0.00091 s⁻¹

Structure (SMILES): CCCCC[C@@H]1NC(=O)[C@H](CCCNC(=N)N)NC(=O)[C@H](C)NC(=O)CSC[C@@H](C(N)=O)NC(=O)[C@H](CC(=O)O)NC(=O)[C@H](CCCc2ccccc2)NC(=O)[C@H](Cc2ccc(-c3ccccc3)cc2)NC(=O)[C@H](CC(C)C)NC(=O)[C@H](C(C)C)NC(=O)[C@H](CCC(=O)O)NC(=O)[C@H](CC(=O)O)NC(=O)[C@H](Cc2c[nH]cn2)NC(=O)[C@H](Cc2ccc(O)cc2)NC1=O [compound 26] ({CH2CO}-AR[Ahp(2)]YHDEVL[Bip][hhPhe]DC-NH2; thioether N-13)
- kon: 1.9e+06 M⁻¹ s⁻¹
- koff: 0.05 s⁻¹

Structure (SMILES): CCCCC[C@@H]1NC(=O)[C@H](CCCNC(=N)N)NC(=O)[C@H](C)NC(=O)CSC[C@@H](C(N)=O)NC(=O)[C@H](CC(=O)O)NC(=O)[C@H](CCCCC)NC(=O)[C@H](Cc2ccc(-c3ccccc3)cc2)NC(=O)[C@H](CC(C)C)NC(=O)[C@H](C(C)C)NC(=O)[C@H](CCC(=O)O)NC(=O)[C@H](CC(=O)O)NC(=O)[C@H](Cc2c[nH]c3cnccc23)NC(=O)[C@H](Cc2ccc(O)cc2)NC1=O [compound 22] ({CH2CO}-AR[Ahp(2)]Y[Trp(6-aza)]DEVL[Bip][Ahp(2)]DC-NH2; thioether N-13)
- Kd: 10.9 nM
- kon: 790000 M⁻¹ s⁻¹
- koff: 0.0087 s⁻¹

Structure (SMILES): CCCCC[C@@H]1NC(=O)[C@H](CCCNC(N)=O)NC(=O)[C@H](C)NC(=O)CSC[C@@H](C(N)=O)NC(=O)[C@H](CC(=O)O)NC(=O)[C@H](CCCCc2ccccc2)NC(=O)[C@H](Cc2ccc(-c3ccccc3)cc2)NC(=O)[C@H](CC(C)C)NC(=O)[C@H](C(C)C)NC(=O)[C@H](CCC(=O)O)NC(=O)[C@H](CC(=O)O)NC(=O)[C@H](Cc2c[nH]cn2)NC(=O)[C@H](Cc2ccc(O)cc2)NC1=O [compound 28] ({CH2CO}-A[Cit][Ahp(2)]YHDEVL[Bip][Nle(6-Ph)]DC-NH2; thioether N-13)
- Kd: 2.4 nM
- kon: 680000 M⁻¹ s⁻¹
- koff: 0.0016 s⁻¹
